Experiments:
β-PDGFR [1] = molecular target: T1, β-PDGFR (Homo sapiens, UniProt P09619); test: HR5 phosphorylation assay (CHO cells overexpressing human β-PDGFR, PDGF BB stimulation); format: cell-based; set-up: host or cells: CHO cells (HR5 line); details: 8 nM PDGF BB, PDGF receptor phosphorylation
Description: • (1) HR5 Phosphorylation Assay
The HR5 cell line is a cell line of CHO cells engineered to overexpress human β-PDGFR, which cell line is available from the ATCC. The expression level of β-PDGFR in HR5 cells is around 5×10^4 receptor per cell. For the phosphorylation assay according to the invention, HR5 cells were grown to confluency in 96-well microtiter plates under standard tissue culture conditions, followed by serum-starvation for 16 hours. Quiescent cells were incubated at 37° C. without or with increasing concentrations of the test compound (0.01-30 uM) for 30 minutes followed by the addition of 8 nM PDGF BB for 10 minutes. Cells were lysed in 100 mM Tris, pH 7.5, 750 mM NaCl, 0.5% Triton X-100, 10 mM sodium pyrophosphate, 50 mM NaF, 10 ug/ml aprotinin, 10 ug/ml leupeptin, 1 mM phenylmethylsulfonyl fluoride, 1 mM sodium vanadate, and the lysate was cleared by centrifugation at 15,000× g for 5 minutes. Clarified lysates were transferred into a second microtiter plate in which the wells were previously coated with 500 ng/well of 1B5B11 anti-β-PDGFR mAb, and then incubated for two hours at room temperature. […] Wells were washed prior to adding ABTS (Sigma), and the rate of substrate formation was monitored at 650 nm.

β-PDGFR [2] = molecular target: T1, β-PDGFR; test: MG63 phosphorylation assay (endogenous β-PDGFR phosphorylation, PDGF-BB stimulation with human plasma); format: cell-based; set-up: This assay is for measuring endogenous β-PDGFR phosphorylation in MG63 cells; endogenous in cells; host or cells: MG63 human osteosarcoma cells (ATCC); details: MG63 human osteosarcoma cells; PDGF-BB stimulation in presence of 45% human plasma; PDGF receptor phosphorylation; read-out: MG63 w/human plasma IC50
Excerpt: The MG63 cell line is a human osteosarcoma tumor cell line available from the ATCC. This assay is for measuring endogenous β-PDGFR phosphorylation in MG63 cells. The assay conditions are the same as those described at for HR5 cell, except that PDGF-BB stimulation is provided in the presence or absence of 45% human plasma.

T1 sequence (P09619 33-1106): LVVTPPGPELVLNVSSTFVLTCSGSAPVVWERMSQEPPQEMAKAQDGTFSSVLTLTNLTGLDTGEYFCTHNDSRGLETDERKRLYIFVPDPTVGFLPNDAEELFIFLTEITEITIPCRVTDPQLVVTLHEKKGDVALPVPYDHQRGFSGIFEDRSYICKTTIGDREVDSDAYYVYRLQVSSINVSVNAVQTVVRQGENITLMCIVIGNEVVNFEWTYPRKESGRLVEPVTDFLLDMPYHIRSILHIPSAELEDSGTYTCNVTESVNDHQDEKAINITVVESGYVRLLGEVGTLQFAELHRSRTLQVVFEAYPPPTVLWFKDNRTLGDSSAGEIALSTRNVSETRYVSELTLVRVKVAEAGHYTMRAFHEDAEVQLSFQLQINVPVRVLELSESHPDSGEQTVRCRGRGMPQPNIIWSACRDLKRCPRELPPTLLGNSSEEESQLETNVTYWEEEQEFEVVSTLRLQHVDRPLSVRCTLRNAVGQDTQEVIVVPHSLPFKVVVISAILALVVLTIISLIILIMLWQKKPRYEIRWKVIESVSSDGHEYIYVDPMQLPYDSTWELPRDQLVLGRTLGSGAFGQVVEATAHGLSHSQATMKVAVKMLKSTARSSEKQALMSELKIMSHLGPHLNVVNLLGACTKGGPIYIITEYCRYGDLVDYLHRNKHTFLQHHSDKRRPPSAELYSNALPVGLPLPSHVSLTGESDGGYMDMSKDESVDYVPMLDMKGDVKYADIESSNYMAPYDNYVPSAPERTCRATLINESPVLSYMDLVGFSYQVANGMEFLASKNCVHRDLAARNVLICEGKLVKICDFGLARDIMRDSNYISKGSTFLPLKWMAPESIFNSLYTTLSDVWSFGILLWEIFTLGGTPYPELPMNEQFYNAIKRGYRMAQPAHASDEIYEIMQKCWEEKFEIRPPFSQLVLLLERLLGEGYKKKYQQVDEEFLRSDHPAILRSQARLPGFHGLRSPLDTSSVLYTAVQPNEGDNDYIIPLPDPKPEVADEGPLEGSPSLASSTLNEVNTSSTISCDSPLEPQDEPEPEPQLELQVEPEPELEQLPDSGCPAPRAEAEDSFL

In the case of `COc1cc2c(N3CCN(C(=O)Nc4ccc(OC(C)C)cc4)CC3)c(C#N)cnc2cc1OCCCN1CCCCC1` [Example 1, {4-[3-cyano-6-methoxy-7-(3-pipetidylpropoxy)quinolin-4-yl)piperazinyl}-N-[4-(methylethoxy)phenyl]carboxamide], the IC50 (β-PDGFR [1]) is reported as 60 nM and the IC50 (β-PDGFR [2]) is reported as 134 nM.

— patent publication US6960580B2, “Nitrogenous heterocyclic substituted quinoline compounds” (Millennium Pharmaceuticals, Inc., priority 2001, dated 2005)
